34 molecules from patent US9149476B2, “Thiochromene derivatives as HIF hydroxylase inhibitors” (FibroGen, Inc., priority 2008, dated 2015) can be followed below.

Where a name gives a salt, the structure may show the parent alone.

For the first assay, the target named is T1, HIF-PH2 (EGLN1) (Homo sapiens, UniProt Q9GZT9).
T1 construct: made in house; host or cells: insect Hi5 cells
T1 sequence (Q9GZT9 whole entry): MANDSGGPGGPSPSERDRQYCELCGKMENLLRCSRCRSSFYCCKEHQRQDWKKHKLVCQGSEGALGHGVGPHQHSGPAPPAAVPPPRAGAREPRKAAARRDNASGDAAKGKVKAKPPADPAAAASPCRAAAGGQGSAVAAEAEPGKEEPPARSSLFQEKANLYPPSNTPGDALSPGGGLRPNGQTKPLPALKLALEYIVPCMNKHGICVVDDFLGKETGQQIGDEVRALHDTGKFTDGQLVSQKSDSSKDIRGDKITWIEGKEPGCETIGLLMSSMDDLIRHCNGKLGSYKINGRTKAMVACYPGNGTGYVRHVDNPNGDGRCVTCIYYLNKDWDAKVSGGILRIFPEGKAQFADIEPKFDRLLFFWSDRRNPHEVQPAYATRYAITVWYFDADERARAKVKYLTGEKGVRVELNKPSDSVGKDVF
As to the kind of experiment: HIF-PH assay (14CO2 capture, peptide-dependent turnover). The assay is classed as biochemical. As to conditions: compound concentration 12.5 μM. The text has this: Ketoglutaric acid α-[1-^14C]-sodium salt, alpha-ketoglutaric acid sodium salt, and HPLC purified peptide may be obtained from commercial sources, e.g., Perkin-Elmer (Wellesley Mass.), Sigma-Aldrich, and SynPep Corp. (Dublin Calif.), respectively. Peptides for use in the assay may be fragments of HIFα as described above or as disclosed in International Publication WO 2005/118836, incorporated by reference herein. For example, a HIF peptide for use in the HIF-PH assay is [methoxycoumarin]-DLDLEALAPYIPADDDFQL-amide (SEQ ID NO:2). HIF-PH, e.g., HIF-PH2 (EGLN1), can be expressed in, e.g., insect Hi5 cells, and partially purified, e.g., through a SP ion exchange chromatography column. Enzyme activity is determined by capturing ^14CO2 using an assay described by Kivirikko and Myllyla (1982, Methods Enzymol. 82:245-304). Assay reactions contain 50 mM HEPES (pH 7.4), 100 μM α-ketoglutaric acid sodium salt, 0.30 μCi/mL ketoglutaric acid α-[1-^14C]-sodium salt, 40 μM FeSO4, 1 mM ascorbate, 1541.8 units/mL Catalase, with or without 50 μM peptide substrate and various concentrations of compound of the invention. Reactions are initiated by addition of HIF-PH enzyme.
The peptide-dependent percent turnover is calculated by subtracting percent turnover in the absence of peptide from percent turnover in the presence of substrate peptide. Percent inhibition and IC50 are calculated using peptide-dependent percent turnover at given inhibitor concentrations. Calculation of IC50 values for each inhibitor is conducted using GraFit software (Erithacus Software Ltd., Surrey UK).
Representative compounds of the invention were analyzed using the HIF-PH assay described above. Table 1 presents enzyme inhibition data for exemplary compounds against HIF-PH2, a representative HIF prolyl hydroxylase. By inhibiting HIF prolyl hydroxylase, compounds of the invention stabilize HIFα, which then combines with HIFβ to form an active transcription factor that increases expression of various genes involved in numerous beneficial cellular processes.
For `O=C(O)CNC(=O)c1c(O)c2ccc(Br)cc2sc1=O` [Example 5, [(7-bromo-4-hydroxy-2-oxo-2H-thiochromene-3-carbonyl)-amino]-acetic acid], the inhibition – broadly, the share of the control response that was lost under treatment – at 12.5 µM stood at 97.6%. The molecule `Cc1ccc2c(O)c(C(=O)NCC(=O)O)c(=O)sc2c1` [Example 6, [(4-Hydroxy-7-methyl-2-oxo-2H-thiochromene-3-carbonyl)-amino]-acetic acid] registered an inhibition at 12.5 µM of 94.5%.

Molecule `COc1ccc(-c2ccc3c(O)c(C(=O)NCC(=O)O)c(=O)sc3c2)cc1` [Example 7, {[4-Hydroxy-7-(4-methoxy-phenyl)-2-oxo-2H-thiochromene-3-carbonyl]-amino}-acetic acid] displayed an inhibition at 12.5 µM of 98.7%. `O=C(O)CNC(=O)c1c(O)c2ccc(F)cc2sc1=O` [Example 21, [(7-Fluoro-4-hydroxy-2-oxo-2H-thiochromene-3-carbonyl)-amino]-acetic acid] returned an inhibition at 12.5 µM of 91.1%. `CCCCOc1ccc2c(O)c(C(=O)NCC(=O)O)c(=O)sc2c1` [Example 26, [(7-Butoxy-4-hydroxy-2-oxo-2H-thiochromene-3-carbonyl)-amino]-acetic acid] returned an inhibition at 12.5 µM of 96.2%.

Still in this assay, the particulars now being: compound concentration 50 μM.
`COc1ccc2c(O)c(C(=O)NCC(=O)O)c(=O)sc2c1` [Example 1, [(4-Hydroxy-7-methoxy-2-oxo-2H-thiochromene-3-carbonyl)-amino]-acetic acid] returned an inhibition at 50 µM of 97.3%.

`COc1cccc(-c2ccc3c(O)c(C(=O)NCC(=O)O)c(=O)sc3c2)c1` [Example 8, {[4-Hydroxy-7-(3-methoxy-phenyl)-2-oxo-2H-thiochromene-3-carbonyl]-amino}-acetic acid] had an inhibition at 50 µM of 97.5%. The molecule `COc1ccccc1-c1ccc2c(O)c(C(=O)NCC(=O)O)c(=O)sc2c1` [Example 9, {[4-Hydroxy-7-(2-methoxy-phenyl)-2-oxo-2H-thiochromene-3-carbonyl]-amino}-acetic acid] showed an inhibition at 50 µM of 97.2%. On the same count and under the same terms, in the case of `O=C(O)CNC(=O)c1c(O)c2ccc(-c3cc(Cl)cc(Cl)c3)cc2sc1=O` [Example 10, {[7-(3,5-Dichloro-phenyl)-4-hydroxy-2-oxo-2H-thiochromene-3-carbonyl]-amino}-acetic acid] it was 96.7%; in that of `O=C(O)CNC(=O)c1c(O)c2ccc(-c3ccc(C(F)(F)F)cc3)cc2sc1=O` [Example 11, {[4-Hydroxy-2-oxo-7-(4-trifluoromethyl-phenyl)-2H-thiochromene-3-carbonyl]-amino}-acetic acid], 95.8%. In the case of `O=C(O)CNC(=O)c1c(O)c2ccc(-c3ccccc3)cc2sc1=O` [Example 12, [(4-Hydroxy-2-oxo-7-phenyl-2H-thiochromene-3-carbonyl)-amino]-acetic acid], the inhibition at 50 µM was found to be 96.8%.

`O=C(O)CNC(=O)c1c(O)c2ccc(-c3ccc(F)cc3)cc2sc1=O` [Example 13, {[7-(4-Fluoro-phenyl)-4-hydroxy-2-oxo-2H-thiochromene-3-carbonyl]-amino}-acetic acid] returned an inhibition at 50 µM of 99.7%. `O=C(O)CNC(=O)c1c(O)c2ccc(-c3cncnc3)cc2sc1=O` [Example 14, [(4-Hydroxy-2-oxo-7-pyrimidin-5-yl-2H-thiochromene-3-carbonyl)-amino]-acetic acid] had an inhibition at 50 µM of 99.5%.

`O=C(O)CNC(=O)c1c(O)c2ccc(-c3cccnc3)cc2sc1=O` [Example 15, [(4-Hydroxy-2-oxo-7-pyridin-3-yl-2H-thiochromene-3-carbonyl)-amino]-acetic acid, sodium salt] returned an inhibition at 50 µM of 95.2%.

`O=C(O)CNC(=O)c1c(O)c2ccc(-c3cncc(F)c3)cc2sc1=O` [Example 16, {[7-(5-Fluoro-pyridin-3-yl)-4-hydroxy-2-oxo-2H-thiochromene-3-carbonyl]-amino}-acetic acid]: the inhibition at 50 µM worked out at 95.4%. Same read-out and setting: in the case of `O=C(O)CNC(=O)c1c(O)c2ccc(-c3ccc(F)c(Cl)c3)cc2sc1=O` [Example 17, {[7-(3-Chloro-4-fluoro-phenyl)-4-hydroxy-2-oxo-2H-thiochromene-3-carbonyl]-amino}-acetic acid] it was 92.8%; in that of `O=C(O)CNC(=O)c1c(O)c2ccc(-c3ccc4ccccc4c3)cc2sc1=O` [Example 18, [(4-Hydroxy-7-naphthalen-2-yl-2-oxo-2H-thiochromene-3-carbonyl)-amino]-acetic acid], 87.9%; in that of `Cc1ccc(-c2ccc3c(O)c(C(=O)NCC(=O)O)c(=O)sc3c2)cc1` [Example 19, [(4-Hydroxy-2-oxo-7-p-tolyl-2H-thiochromene-3-carbonyl)-amino]-acetic acid], 92.1%. For `Cc1cc(Cl)cc2c(O)c(C(=O)NCC(=O)O)c(=O)sc12` [Example 22, [(6-Chloro-4-hydroxy-8-methyl-2-oxo-2H-thiochromene-3-carbonyl)-amino]-acetic acid], the inhibition at 50 µM worked out at 95.6%. As to `Cc1cccc2c(O)c(C(=O)NCC(=O)O)c(=O)sc12` [Example 23, [(4-Hydroxy-8-methyl-2-oxo-2H-thiochromene-3-carbonyl)-amino]-acetic acid], at 50 µM the inhibition was 97.5%.

Still in this assay, the particulars now being: compound concentration 67 μM.
With `O=C(O)CNC(=O)c1c(O)c2cc(Br)ccc2sc1=O` [Example 27, [(6-Bromo-4-hydroxy-2-oxo-2H-thiochromene-3-carbonyl)-amino]-acetic acid], testing at 67 µM gave an inhibition of 100%. Still for that read-out and setting: then `C[C@H](NC(=O)c1c(O)c2cc(Br)ccc2sc1=O)C(=O)O` [Example 28, 2-(S)-[(6-Bromo-4-hydroxy-2-oxo-2H-thiochromene-3-carbonyl)-amino]-propionic acid], with 98%. On the same count and under the same terms, in the case of `O=C(O)CNC(=O)c1c(O)c2ccc(-c3cc(C(F)(F)F)cc(C(F)(F)F)c3)cc2sc1=O` [Example 29, {[7-(3,5-Bis-trifluoromethyl-phenyl)-4-hydroxy-2-oxo-2H-thiochromene-3-carbonyl]-amino}-acetic acid] it was 96.4%; in that of `O=C(O)CNC(=O)c1c(O)c2ccc(-c3cccc(F)c3)cc2sc1=O` [Example 30, {[7-(3-Fluoro-phenyl)-4-hydroxy-2-oxo-2H-thiochromene-3-carbonyl]-amino}-acetic acid], 99.1%; in that of `C[C@H](NC(=O)c1c(O)c2ccc(-c3cccc(F)c3)cc2sc1=O)C(=O)O` [Example 31, 2-(S)-{[7-(3-Fluoro-phenyl)-4-hydroxy-2-oxo-2H-thiochromene-3-carbonyl]-amino}-propionic acid], 98.4%. As for `O=C(O)CNC(=O)c1c(O)c2ccc(-c3ccccc3C(F)(F)F)cc2sc1=O` [Example 32, {[4-Hydroxy-2-oxo-7-(2-trifluoromethyl-phenyl)-2H-thiochromene-3-carbonyl]-amino}-acetic acid], the inhibition at 67 µM worked out at 93.2%. In turn, `O=C(O)CNC(=O)c1c(O)c2cc(-c3cc(C(F)(F)F)cc(C(F)(F)F)c3)ccc2sc1=O` [Example 33, {[6-(3,5-Bis-trifluoromethyl-phenyl)-4-hydroxy-2-oxo-2H-thiochromene-3-carbonyl]-amino}-acetic acid] yielded an inhibition at 67 µM of 99.4%. Turning to `O=C(O)CNC(=O)c1c(O)c2cc(-c3ccccc3C(F)(F)F)ccc2sc1=O` [Example 34, {[4-Hydroxy-2-oxo-6-(2-trifluoromethyl-phenyl)-2H-thiochromene-3-carbonyl]-amino}-acetic acid], the inhibition at 67 µM is 99.8%.

Molecule `COc1ccc(-c2ccc3sc(=O)c(C(=O)NCC(=O)O)c(O)c3c2)cc1` [Example 35, {[4-Hydroxy-6-(4-methoxy-phenyl)-2-oxo-2H-thiochromene-3-carbonyl]-amino}-acetic acid] showed an inhibition at 67 µM of 99.1%. Still for that read-out and setting: then `O=C(O)CNC(=O)c1c(O)c2cc(-c3ccccc3Cl)ccc2sc1=O` [Example 36, {[6-(2-Chloro-phenyl)-4-hydroxy-2-oxo-2H-thiochromene-3-carbonyl]-amino}-acetic acid], with 99.7%. On the same count and under the same terms, in the case of `O=C(O)CNC(=O)c1c(O)c2cc(-c3cccc(F)c3)ccc2sc1=O` [Example 37, {[6-(3-Fluoro-phenyl)-4-hydroxy-2-oxo-2H-thiochromene-3-carbonyl]-amino}-acetic acid] it was 98.4%.

The assay is the same for the next values; noted with them: compound concentration 200 μM.
`COc1cc2sc(=O)c(C(=O)NCC(=O)O)c(O)c2cc1OC` [Example 2, [(4-Hydroxy-6,7-dimethoxy-2-oxo-2H-thiochromene-3-carbonyl)-amino]-acetic acid] returned an inhibition at 200 µM of 99.4%. Same read-out and setting: in the case of `O=C(O)CNC(=O)c1c(O)c2ccccc2sc1=O` [Example 3, [(4-Hydroxy-2-oxo-2H-thiochromene-3-carbonyl)-amino]-acetic acid] it was 99.2%; in that of `O=C(O)CNC(=O)c1c(O)c2cc(F)ccc2sc1=O` [Example 4, [(6-Fluoro-4-hydroxy-2-oxo-2H-thiochromene-3-carbonyl)-amino]-acetic acid], 100%.
